This passage reports Gelation results from patent publication US9289496B2, “Lipid dipeptide and gel” (Nissan Chemical Industries, Ltd., priority 2008, dated 2016).

The nature of data set [1]: Evaluation of gelation of free N-palmitoyl-Gly-His in glycerin solution. Format: physicochemical. On the procedure: Free N-palmitoyl-Gly-His prepared in Example 4 was placed into a screw tube (Maruemu No. 1, manufactured by Maruemu Corp.). Each of the glycerin solutions having various concentrations shown in Table 5 was added into the screw tube so as to have a free N-palmitoyl-Gly-His concentration of 0.2%, 0.25%, 0.5%, or 1% (w/v). The mixture was heated at 100° C. with a constant temperature heat block (manufactured by Nippon Genetics Co., Ltd.), and then allowed to stand at room temperature.
In Table, a sample that formed a gel is shown as “O”, a sample that partially formed a gel is shown as “A”, and a sample without evaluation is shown as “-”.

A short description of data set [2]: Preparation of film from sheet-shaped gel. Format: physicochemical. The note with it: 0.5% (w/v); 30%, 20% and 10% glycerin aqueous solutions; dissolved at 80° C. On the procedure:
Into a screw tube (Maruemu No. 3, manufactured by Maruemu Corp.), 3 mg of N-palmitoyl-Gly-His.TFA salt prepared in Example 1 was placed. Into the screw tube, 0.6 ml of Japanese Pharmacopoeia purified water (Kyoei Pharmaceutical Industries, Ltd.) was added so as to have a concentration of 0.5% (w/v). The whole was heated at 105° C. for 5 minutes, and then allowed to stand at room temperature to prepare a gel of 0.5% N-palmitoyl-Gly-His.TFA salt.
Into the gel, 2 ml of Japanese Pharmacopoeia purified water (Kyoei Pharmaceutical Industries, Ltd.) was further added and sheet formation was observed from a wide view for 72 hours.
Using 10 mg of free N-palmitoyl-Gly-His, each 2.0 mL of 30%, 20%, and 10% glycerin aqueous solutions was added so as to become a 0.5% (w/v) solution, and the mixture solution was heated and dissolved at 80° C. The solution was placed in a glass petri dish having an inner diameter of 2.2 cm and allowed to cool at room temperature. […] Then, the obtained gel was transferred onto a glass substrate.

Residues, ends and D or L forms follow the SMILES beside them.

With `CCCCCCCCCCCCCCCC(=O)NCC(=O)N[C@@H](Cc1c[nH]cn1)C(=O)O` [Example 4, N-Palmitoyl-Gly-His] (HELM PEPTIDE1{[CCCCCCCCCCCCCCCC(=O)[*:2]].G.H}$$$$V2.0), the Gelation result in data set [1] (0.2% (w/v), mass fraction glycerin/water + glycerin 0.1) is on record as “Δ”; in data set [1] (0.2% (w/v), mass fraction glycerin/water + glycerin 0.3), “Δ”; in data set [1] (0.2% (w/v), mass fraction glycerin/water + glycerin 0.5), “◯”; in data set [1] (0.2% (w/v), mass fraction glycerin/water + glycerin 0.6), “◯”; in data set [1] (0.2% (w/v), mass fraction glycerin/water + glycerin 0.7) it was “◯”; in data set [1] (0.25% (w/v), mass fraction glycerin/water + glycerin 0.1) it was “◯”. Besides, the Gelation result in data set [1] (0.25% (w/v), mass fraction glycerin/water + glycerin 0.3) is given as “◯”; in data set [1] (0.25% (w/v), mass fraction glycerin/water + glycerin 0.4), “◯”; in data set [1] (0.25% (w/v), mass fraction glycerin/water + glycerin 0.5) it was “◯”; in data set [1] (0.25% (w/v), mass fraction glycerin/water + glycerin 0.6), “◯”; in data set [1] (0.25% (w/v), mass fraction glycerin/water + glycerin 0.7), “◯”; in data set [1] (0.5% (w/v), mass fraction glycerin/water + glycerin 0.1), “◯”. Also, the Gelation result in data set [1] (0.5% (w/v), mass fraction glycerin/water + glycerin 0.3) was “◯”; in data set [1] (0.5% (w/v), mass fraction glycerin/water + glycerin 0.4) it was “◯”; in data set [1] (0.5% (w/v), mass fraction glycerin/water + glycerin 0.5), “◯”; in data set [1] (0.5% (w/v), mass fraction glycerin/water + glycerin 0.6) it was “◯”; in data set [1] (0.5% (w/v), mass fraction glycerin/water + glycerin 0.7), “◯”; in data set [1] (1.0% (w/v), mass fraction glycerin/water + glycerin 0.1), “◯”. For the same molecule, the Gelation result is reported as “◯” in data set [1] (1.0% (w/v), mass fraction glycerin/water + glycerin 0.3); “◯” in data set [1] (1.0% (w/v), mass fraction glycerin/water + glycerin 0.4); “◯” in data set [1] (1.0% (w/v), mass fraction glycerin/water + glycerin 0.5); “◯” in data set [1] (1.0% (w/v), mass fraction glycerin/water + glycerin 0.6); “◯” in data set [1] (1.0% (w/v), mass fraction glycerin/water + glycerin 0.7); “gelation was observed in each case” in data set [2].
